# Read-outs that look alike come from different tables or passages of the source.
# Assays:
# AIDS [1] = assay: 3-month double-blind then open trial in 38 AIDS patients (Kaposi's sarcoma / opportunistic infection); assay type: in vivo, human
# [2] = tested on: autistic children, lymphocyte subsets; assay: behavioral and immunological assessment in autism during double-blind naltrexone treatment; assay type: in vivo, human
# From the text: Opioid-immune interactions in autism: behavioral and immunological assessment during a double-blind treatment with naltrexone.
# Changes in natural killer cells and activity were inversely related to plasma beta-endorphin levels.
# ovarian cancer cells = ovarian cancer cells treated with different dosing regimens of naltrexone; assay type: cell-based
# Procedure: […]. They also prevent the adhesion of cancer cells to bone marrow stromal cells and thereby inhibit the enhanced secretion of migratory factors, such as interleukin (IL)-6, TNF-α, and vascular endothelial growth factor. In research experiments, ovarian cancer cells were treated with either water as the control or different dosing regimens of naltrexone to replicate high dose versus Immediate release dosing of naltrexone.
# [3] = tested on: women meeting criteria for fibromyalgia; assay: fibromyalgia study in ten women; assay type: in vivo, human; settings: 4.5 mg
# From the text: […]. […] Baseline erythrocyte sedimentation rate predicted over 80% of the variance in drug response. […]. Which confirms the ability of Immediate release naltrexone to decree pain and inflammation.
# HIV [4] = assay: naltrexone as adjunct therapy, 50 HIV/AIDS patients in Africa with standard of care; assay type: in vivo, human
# From the text: Naltrexone as an adjunct therapy with HIV/AIDS patients. […] HIV disease is associated with a new constellation of problems, generally referred to as “non-AIDS morbidity”, and, in the popular press, “premature aging. […] at risk for developing a number of non-AIDS conditions, including cardiovascular disease, cancer, kidney disease, liver disease, osteopenia/osteoporosis and neurocognitive disease (collectively referred to as “serious non-AIDS events”). Malignancies associated with infections such as human papilloma virus (including uro-genital and head and neck cancers), Epstein Barr Virus (including Hodgkins disease), and hepatitis B and C (hepatocellular carcinoma), are also relatively common in HIV-infected adult. […] Subtle elevations in many of these biomarkers are associated with dramatic increases in the risk of subsequent disease, including all-cause mortality For example, as compared to a well-matched uninfected population, treated HIV-infected adults have approximately 50 to 100% higher levels of the inflammatory cytokine interleukin-6 (IL-6)^(32). […] Risk factors for impaired CD4 T-cell recovery include low pre-treatment CD4+ T cell count nadir, co-infection with other viruses such as hepatitis C, older age, and perhaps viral factors (24). […]
# HIV [5] = settings: 3 mg compounded, with ART, cited from earlier work
# MS patients = assay: retrospective chart review of MS patients receiving LDN; assay type: in vivo, human
# From the text: This study investigated the safety, tolerability, and benefits (fatigue, reduction) of LDN in patients with MS. It reviewed the number of patients who stopped taking LDN and if there were specific reasons for stopping the LDN. The frequency and variety of side effects that were specific to LDN use are reported. […] 1, 2005 and May 31, 2012. There were 215 MS patients having exposure to LDN during the time of this study. […] In addition to the assessment we review Brain MRIs and Spinal Cord MRIs that were obtained as part of the clinical status of the patient and standard of care.
# It reviewed the number of patients who stopped taking IMMEDIATE RELEASE NALTREXONE (LDN) and if there were specific reasons for stopping the IMMEDIATE RELEASE NALTREXONE (LDN). […] 1, 2005 and May 31, 2012. […]. In addition to the assessment we review Brain MRIs and Spinal Cord MRIs that were obtained as part of the clinical status of the patient and standard of care. […].
# AIDS [6] = settings: 3.0 mg daily at bedtime, 12 weeks, cited from earlier work
# Fibromyalgia patient = assay: Fibromyalgia and Epstein Barr case report; assay type: in vivo, human
# From the text: A person was diagnosed in 1998 Fibromyalgia and Epstein Barr, had to quit work, in pain and very depressed. Various treatments over the years for pain prescribed and other problems with the disease. […]
# Hepatitis C = Hepatitis C case reports; assay type: in vivo, human
# [7] = tested on: Autoimmune Hepatitis-Type 1 patient; assay: Autoimmune Hepatitis-Type 1 case report; settings: 4.5 mg nightly
smiles,measurement,setting,value
"O=C1CC[C@@]2(O)[C@H]3Cc4ccc(O)c5c4[C@@]2(CCN3CC2CC2)[C@H]1O5 [Immediate release naltrexone, naltrexone]","pain scores NRS (out of 10), person one, CRPS and EDS","CRPS patients; 3 mg once a day, then 4.5 mg per day, from (7-10)/10",3-5
same,"allodynia and sensitivity, person one, CRPS",CRPS patients; 3 mg then 4.5 mg per day,"decrease in allodynia, as well as a decrease in sensitivity to touch and temperature change"
same,"dystonia, initial treatment, person one, CRPS","CRPS patients; 3 mg then 4.5 mg per day, before surgery",no effect on the dystonia
same,"side effects, person three, CRPS",CRPS patients; 4.5 mg per day,No side effects
same,"average pain on the Numeric Rating Scale (NRS), person three, CRPS","CRPS patients; 4.5 mg per day at night, before 8 to 10",5 to 6
same,"requirements for intravenous ketamine infusions, person three, CRPS","CRPS patients; 4.5 mg per day, by March of 2012, 6 week intervals",not as frequent
same,"walking, person three, CRPS","CRPS patients; 4.5 mg per day, cane used continuously since 2006",able to walk without a cane
same,"dystonic spasms, person three, CRPS","CRPS patients; 4.5 mg per day, within 2 months",dystonic spasms discontinued
same,"post-operative pain NRS (out of 10), person one, CRPS",CRPS patients; 3 weeks after resuming drug,4-6
same,"side effects, person one, CRPS",CRPS patients; 18 months,No side effects
same,"fixed dystonia at cast removal, person one, CRPS","CRPS patients; after ankle reinforcement surgery, on drug",remission of the leg's fixed dystonia
same,"CRPS symptoms, person one",CRPS patients; maintained for 18 months,CRPS symptoms have resolved completely
same,elevated levels of serum alpha interferon (IFN-α) vs placebo,"AIDS [1]; 1.75 mg nightly at bedtime, 3-month double-blind period, p<0.01",significant drop
same,survival of patients who did not show a decline in IFN-α,AIDS [1]; 2 of the 15,13%
same,mean IFN-α level after treatment,"AIDS [1]; 23 patients with decline, from mean 144.9 IU. over a 12-month period",11.0 IU.
same,survival of patients who showed a decline in IFN-α,"AIDS [1]; Nineteen of the 23, p<0.01",83%
same,side effects,AIDS [1]; during the conduct of the trial,No side effects were noted
same,T-cytotoxic-suppressor (CD4−CD8+),[2],significant reduction
same,T-helper-inducers (CD4+CD8−),[2],significant increase
same,growth of cancer cells,"ovarian cancer cells; Immediate release low or short-term dosing, control water",growth of cancer cells was slowed
same,growth of cancer cells,ovarian cancer cells; high dose of naltrexone,cancer cells were stimulated and grew faster
same,Side effects (including insomnia and vivid dreams),[3],"rare, and described as minor and transient"
same,mechanical and heat pain thresholds,[3]; laboratory visits,improved
same,inflammatory cytokine and Th1/Th2 balance,HIV [4]; adjunct to standard of care (ART),Secreased inflammatory cytokine and a shift from Th1 (pro-inflammatory) to Th2 (anti-inflammatory)
same,opportunistic infection and quality of life,"HIV [4]; adjunct to standard of care, long term",reduction in opportunistic infection and a higher quality of live
same,improvement in CD4 count vs control group,"HIV [5]; at 6 months, p=0.041, 51 vs 49 subjects",significantly greater than the control group
same,improvement in CD4 count vs control group,"HIV [5]; at 9 months, p=0.067",marginally
same,Improvement in CD4%,HIV [5]; throughout treatment,not statistically significant
same,quality of life over a long period of time,MS patients; 215 MS patients exposed,improvement in quality of life
same,Brain MRI scans showing improvement,MS patients; of 215 patients,14 MRI scans
same,Brain MRI scans slightly worse,"MS patients; of 215 patients, new but inactive lesion(s)",28 MRI scans
same,lymphocyte mitogen responses,AIDS [6],declined on placebo and not on Immediate release naltrexone
same,pathologically elevated levels of acid-labile alpha interferon,AIDS [6],declined significantly
same,incidence of opportunistic infections (patients),AIDS [6]; placebo 5 out of 16 (31%),0 of the 22
same,"decrease of pain level, person, Fibromyalgia and Epstein Barr",Fibromyalgia patient; 0.5 mg in 2004 increased to 3 mg,90%
same,"antidepressant use, person, Fibromyalgia",Fibromyalgia patient; 0.5 mg increased to 3 mg,no longer need to take anti-depressants
same,"Viral load, person, Hepatitis C & stage 4 cirrhosis","Hepatitis C; 4.5 mg, by August of 2011",8.3 million
same,"HCV viral load, person",Hepatitis C; May 2010,11.400
same,"ultrasound and liver enzymes, person, Hepatitis C",Hepatitis C; all other medication stopped,"No fatty liver, Liver enzymes dropped to normal"
same,"HCV viral load, person","Hepatitis C; started February of 2009, May 2009, from over a million in January 2009","49,000"
same,"side effects, person, Autoimmune Hepatitis-Type 1",[7],vivid dreams and mild indigestion in the first two weeks

# Reference: patent US11419865B2, “Method for inducing a sustained immune response” (Cytocom Inc., priority 2016, dated 2022)
